Assay results as given in paper PMC3510438, “The transmembrane tyrosines Y56, Y91 and Y167 play important roles in determining the affinity and transport rate of the rabbit proton-coupled peptide transporter PepT1” (The International Journal of Biochemistry & Cell Biology, 2009).
Residue numbers refer to the chain shown, from its start.

How the values were obtained:
Y167F-rPepT1 = biological target: T1, Y167F-rPepT1 (Oryctolagus cuniculus, UniProt P36836, Y167F); assay: Uptake of tracer [3H]-D-Phe-L-Gln into Xenopus oocytes; assay type: cell-based, rabbit
T1 construct: expressed in transfected cells; host or cells: Xenopus laevis oocytes injected with cRNA
T1 sequence (P36836 1-707 Y167F): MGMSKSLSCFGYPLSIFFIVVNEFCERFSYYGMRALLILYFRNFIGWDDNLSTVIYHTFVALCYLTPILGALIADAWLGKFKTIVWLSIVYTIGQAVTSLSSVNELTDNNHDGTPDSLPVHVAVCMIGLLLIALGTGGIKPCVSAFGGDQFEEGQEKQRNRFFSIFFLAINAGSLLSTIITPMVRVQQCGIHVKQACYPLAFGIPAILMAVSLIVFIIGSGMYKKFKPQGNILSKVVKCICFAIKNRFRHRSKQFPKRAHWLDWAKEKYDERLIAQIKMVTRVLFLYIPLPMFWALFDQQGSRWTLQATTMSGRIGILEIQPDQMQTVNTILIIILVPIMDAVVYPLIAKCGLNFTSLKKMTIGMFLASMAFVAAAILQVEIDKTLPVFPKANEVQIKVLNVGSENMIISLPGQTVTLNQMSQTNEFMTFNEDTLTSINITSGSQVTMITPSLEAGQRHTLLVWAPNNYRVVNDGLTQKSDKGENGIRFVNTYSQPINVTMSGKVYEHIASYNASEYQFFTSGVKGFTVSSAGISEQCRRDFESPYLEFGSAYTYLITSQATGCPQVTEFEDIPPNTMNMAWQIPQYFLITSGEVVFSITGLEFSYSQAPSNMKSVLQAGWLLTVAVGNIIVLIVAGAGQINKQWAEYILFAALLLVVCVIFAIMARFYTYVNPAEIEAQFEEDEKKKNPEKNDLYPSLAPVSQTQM
Experimental: (§1) rPepT1 constructs were linearised with XbaI (New England Biolabs, UK) and cRNA generated by in vitro transcription (T7 mMessage mMachine, Ambion, Cambridgeshire, UK). Xenopus laevis oocytes were obtained under MS222 anaesthesia (0.2%, w/v) in accordance with the UK Animals (Scientific Procedures) Act, 1986, and maintained at 18 °C in modified Barth's medium (88 mM NaCl, 1 mM KCl, 0.82 mM MgSO4, 2.4 mM NaHCO3, 0.42 mM CaCl2, 10 mM Hepes, 5 mM sodium pyruvate, 50 μg ml^−1 gentamicin (Fluka, Poole, UK), adjusted to pH 7.6 with 1 M NaOH). Transport measurements were performed at least 72 h after micro-injection of oocytes with 27nl cRNA (1 μg/μl), with medium changed daily.
(§2) Uptake of [^3H]-D-Phe-L-Gln (17.4 Ci/mmole, custom synthesised, Cambridge Research Biochemicals, Stockton-on-Tees, UK) was performed as previously described ([Meredith, 2004]). Briefly, 5 oocytes were incubated in 100 μl of uptake medium (95 mM NaCl, 2 mM KCl, 1 mM CaCl2, 0.42 mM MgCl2, 10 mM Tris/Hepes pH 7.4 or Tris/Mes pH 5.5) with tracer (0.4 μM) [^3H]-D-Phe-L-Gln. After incubation, the oocytes were washed sequentially five times in 1 ml of ice-cold 120 mM NaCl solution, lysed individually with 100 μl 2% (w/v) SDS and liquid scintillation counted. As a control non-injected oocytes were also incubated in uptake medium with D-Phe-L-Gln as above.

Y56F/T58Y-rPepT1 = biological target: T2, Y56F/T58Y-rPepT1 (Oryctolagus cuniculus, UniProt P36836, T58Y/Y56F); assay: as above; assay type: cell-based, rabbit; details: both pHout 5.5 and 7.4
T2 construct: expressed in transfected cells; host or cells: Xenopus laevis oocytes injected with cRNA
T2 sequence (P36836 1-707 Y56F/T58Y): T1 sequence (P36836 1-707 Y167F) with Y56F, T58Y, F167Y
Experimental: as §1, §2

reduction of uptake compared to the wild-type (Y167F-rPepT1; both pHout 5.5 and 7.4): > 90%
decrease in rate of uptake compared to the wild-type (Y167F-rPepT1; pHout 5.5, 1 h): ~90%
reduction of uptake compared to the wild-type (Y56F/T58Y-rPepT1): > 90%
Substance: [^3H]-D-Phe-L-Gln
